Experimental data published in article PMC4279419, “Angiostatic, tumor inflammatory and anti-tumor effects of CXCL4^47–70 and CXCL4L1^47–70 in an EGF-dependent breast cancer model” (Oncotarget, 2014).
Where no end group is shown, it is not given here.

Experiments:
[1] = tested on: human dermal lymphatic microvascular endothelial cells (HLEC); experiment: HLEC MTT proliferation assay; format: cell-based; settings: control PI=1, 3 to 4 days, MTT, mean ± s.e.m., n=4
Protocol: First, HMVEC and HLEC were seeded at 5 × 10^3 cells/well in EBM-2 + 1% FCS in a 96-well plate, whereas MDA-MB-231 were starved of growth factors overnight by replacing their growth medium with DMEM (serum-free) prior to seeding the tumor cells at 15 × 10^2 cells/well in DMEM + 1% FCS. As for the rest of the assay, the same protocol applies to all cells. Once adherent, cells were incubated with different concentrations of the peptides CXCL4^47–70 and CXCL4L1^47–70 as single stimuli or in combination with recombinant human EGF (3 ng/ml; R&D Systems, Minneapolis, MN) at 37°C/5% CO2. All conditions were tested in triplicate or quadruplicate. After 3 to 4 days, stimulation medium was removed and a sterile MTT solution was added [0.04 g/100 ml thiazolyl blue (Sigma-Aldrich, St. Louis, MO) in 20% PBS/80% RPMI without phenol red (Lonza)] for 3 to 4 hours. The formed formasan crystals were dissolved by replacing the MTT solution with acidic propanol (0.04 M HCl, 0.1% (v/v) Nondet P-40 in absolute isopropanol) and shaking the plate, shielded from light, for 10 minutes. Optical density (OD) was determined at 570 nm and 630 nm. The obtained ODs were processed to proliferation indexes (PI), expressed relative to appropriate buffer controls, i.e. ΔOD570–630X over ΔOD570–630CO.

[2] = tested on: MDA-MB-231 breast tumors in SCID mice; experiment: MDA-MB-231 tumor growth in SCID mice; format: in vivo; settings: 2.5 μg intratumoral 3×/week from day 3, mean ± s.e.m., n=10; for tumor volume (external), day 11 / mean tumor volume (external), day 25: calipers; for tumor volume (external), day 11: vehicle 176 ± 56, p<0.001 (CXCL4^47–70), p=0.007 (CXCL4L1^47–70); for mean tumor volume (external), day 25: vehicle 1116 ± 149, p=0.121 (CXCL4L1^47–70); for mean tumor volume (external), day 25 / resected tumor mass, day 27 or 28: p=0.002 (CXCL4^47–70); for resected tumor volume, day 27 or 28: vehicle 845 ± 177, p=0.001 (CXCL4^47–70), p=0.256 (CXCL4L1^47–70); for resected tumor mass, day 27 or 28: vehicle 1464 ± 277, p=0.091 (CXCL4L1^47–70)
Protocol: SCID mice were bred in specific-pathogen-free conditions in the Experimental Animal Breeding Facility of the University of Leuven (KU Leuven) and fed sterilized food and water. All animal experiments were conducted in agreement with the Ethical Committee for Animal Care and Use of the KU Leuven and executed under license number LA1210243. 7- to 10-week-old SCID mice were used throughout the experiments. MDA-MB-231 cells in log growth phase (6 × 10^6 cells resuspended in 200 μl of PBS) were injected subcutaneously (s.c.) on day 0 in the right dorsal flank. Animals were treated by intratumoral injection with control, 2.5 μg synthetic human CXCL4^47–70 peptide or synthetic human CXCL4L1^47–70 peptide three times a week starting from day 3. The external tumor volume was measured with calipers thrice a week and calculated using the formula (4πab2)/3 in which a and b are the largest and smallest radius, respectively. On day 27 or 28, mice were sacrificed and tumors were resected. The exact tumor volume of the resected tumor, based on three measured radii (a, b and c), was calculated by the formula (4πabc)/3. A portion of the tumors was stored at −70°C for generation of mRNA extracts and another part was processed for flow cytometry.

CHO/CXCR3B cells = experiment: CXCR3B binding (flow cytometry); settings: NH2-terminally biotinylated peptides, 3 to 3000 ng/ml, data not shown
From the text: We further tried to reveal the mode of action of CXCL4^47–70 and CXCL4L1^47–70. First, we excluded that either peptide still binds/activates one of the CXCR3 isoforms, the receptors for intact CXCL4 and CXCL4L1.

CCL5 = CCL5 binding (heterodimerization) assay in 96-well plates; design: species or system human; settings: biotinylated peptides; 37 °C; 50 ng/ml CCL5 coated; OD450; n=3
Protocol: GAG, EGF and CCL5 binding were quantified in 96-well plates following a similar protocol. GAG binding was evaluated by immobilizing low molecular weight heparin (Iduron, Manchester, UK) on EpranEx plates (BD Biosciences), whereas EGF as well as CCL5 recombinant human protein (R&D Systems and PeproTech, respectively) was immobilized on high protein-binding ELISA plates (Corning life sciences, Tewksbury, MA). In brief, 25 μg/ml GAG [diluted in assay buffer 100 mM NaCl, 50 mM NaAc, pH 7.2, and 0.2% (v/v) Tween-20], 2 μg/ml EGF or 50 ng/ml CCL5 (both diluted in PBS), was coated overnight at room temperature on 96-well plates. Plates were washed three times with either assay buffer or 0.5% (v/v) Tween 20 in PBS and blocked at 37°C with buffer enriched with either 0.2% (w/v) gelatin (heparin binding assay) or 0.1% (w/v) casein (EGF or CCL5 binding assay). Subsequently, a dilution curve of biotinylated CXCL4L1^47–70 and CXCL4^47–70 peptide was pipetted on the plate and incubated at 37 °C to allow interaction with heparin, EGF or CCL5. After washing, retained biotinylated peptide was detected by peroxidase-conjugated streptavidin. Peroxidase activity was quantified by measuring the conversion of 3,3′,5,5′-tetramethylbenzidine (Sigma-Aldrich) at 450 nm.

CD204 = experiment: qPCR tumor CD204 mRNA (M2 marker); format: in vivo, murine; settings: 2.5 μg intratumoral 3×/week; 2^−ΔΔCT
Protocol: (§1) The RNeasy Mini Kit (QIAGEN, Venlo, the Netherlands) was used for tumor mRNA extraction. The extracted mRNA was then converted to cDNA making use of the High Capacity cDNA Reverse Transcription Kit (Applied Biosystems, Foster City, CA). Quantitative polymerase chain reactions (qPCR) based on the TaqMan principle were conducted to compare gene expression between samples. Primers and probes (Table 2; Integrated DNA Technologies, Haasrode, Belgium), were diluted to the prescribed working concentrations in RNase-free water and added to the reaction mix in a MicroAmp® fast optical 96-well reaction plate (Applied Biosystems), together with 50 ng sample cDNA per reaction. The actual thermocycler program consisted of 2 minutes on 50 °C, 10 minutes on 95 °C and 40 cycles of 15 seconds on 95 °C followed by 1 minute on 60 °C. Analysis of the obtained CT was based on the 2^−ΔΔC^T method, opting for 18S ribosomal 1 RNA as an internal control.

CD11c = experiment: qPCR tumor CD11c mRNA (dendritic cell marker); format: in vivo, murine; settings: 2.5 μg intratumoral 3×/week; 2^−ΔΔCT; p=0.032, n=10
Protocol: as §1

IFN-γ = experiment: qPCR tumor IFN-γ mRNA; format: in vivo, murine; settings: 2.5 μg intratumoral 3×/week; 2^−ΔΔCT
Protocol: as §1

muCCL5 = experiment: qPCR stromal CCL5 mRNA; format: in vivo, murine; settings: 2.5 μg intratumoral 3×/week; 2^−ΔΔCT; p=0.020, n=7
Protocol: as §1

[3] = peptide 0.3 μg/ml, p=0.030 (CXCL4^47–70), p=0.312 (CXCL4L1^47–70)

CXCL4L1^47–70: synthetic human carboxy-terminal peptide restricted to the last 24 amino acids of CXCL4L1, Fmoc chemistry
Proliferation index (PI), baseline [1, 3]: 0.90 ± 0.05
Proliferation index (PI), baseline ([1]; peptide 1 μg/ml, p=0.030): 0.82 ± 0.05
Proliferation index (PI), baseline ([1]; peptide 3 μg/ml, p=0.030): 0.66 ± 0.04
tumor volume (external), day 11 [2]: 61 ± 23 mm^3
mean tumor volume (external), day 25 [2]: 719 ± 153 mm^3
resected tumor volume, day 27 or 28 [2]: 647 ± 161 mm^3
resected tumor mass, day 27 or 28 [2]: 953 ± 208 mg
specific binding to CHO/CXCR3B (CHO/CXCR3B cells): could not detect specific binding
binding to CCL5-coated plate (CCL5): directly and equally well interacted with CCL5

CXCL4^47–70: synthetic human carboxy-terminal peptide restricted to the last 24 amino acids of CXCL4, Fmoc chemistry (NGRKICLDLQAPLYKKIIKKLLES; not fully specified (N-terminus))
Proliferation index (PI), baseline [1, 3]: 0.70 ± 0.06
Proliferation index (PI), baseline ([1]; peptide 1 μg/ml, p=0.030): 0.69 ± 0.06
Proliferation index (PI), baseline ([1]; peptide 3 μg/ml, p=0.030): 0.37 ± 0.04
tumor volume (external), day 11 [2]: 24 ± 6 mm^3
mean tumor volume (external), day 25 [2]: 438 ± 97 mm^3
resected tumor volume, day 27 or 28 [2]: 308 ± 61 mm^3
resected tumor mass, day 27 or 28 [2]: 523 ± 108 mg
CD204 mRNA versus control (CD204): only a modest increase
CD11c mRNA versus vehicle (CD11c): more prominent
IFN-γ mRNA versus vehicle (IFN-γ): significantly elevated expression
stromal CCL5 expression versus vehicle (muCCL5): significantly upregulated
specific binding to CHO/CXCR3B (CHO/CXCR3B cells): could not detect specific binding
binding to CCL5-coated plate (CCL5): directly and equally well interacted with CCL5
